Assay results from patent publication US4492693A, “Benzothienylglycyl cephalosporin derivatives” (priority 1983, dated 1985).
In brackets after ≈: the same amount, converted by molar mass. Where two headings read alike, the source gives them in different places.

What was measured:
Type in all cases: cell-based
Strep. D = test: Agar Dilution MIC (Table I); conditions: read-out: Agar Dilution MIC
Source text: (§1) A typical and preferred compound provided by this invention is 7-(3-benzothienyl)glycylamido-3-methyl-3-cephem-4-carboxylic acid, the compound illustrated in Example 9. The antibacterial activity of this compound has been determined in standard in vitro agar dilution assays against a variety of gram positive and gram negative microorganism. The following Tables present typical minimum inhibitory concentrations (MIC's) in μg/ml for several compounds of the invention when evaluated against the indicated microorganisms. MIC's for several known compounds are also presented for comparison.
Agar Dilution MIC (μg/ml)

Strep. PN = test: Agar Dilution MIC (Table I); conditions: strain PARK
H. influ. = test: Agar Dilution MIC (Table I); conditions: read-out: Agar Dilution MIC
E. coli = test: Agar Dilution MIC (Table I); conditions: Escherichia coli
Staph. epi [1] = test: Agar Dilution MIC (Table I); conditions: read-out: Agar Dilution MIC
Bacteroides fragilis = test: Susceptibility of Anaerobic Bacteroides Isolates by the Agar-Dilution Method (Table III); conditions: 24 h
Source text: as §1
(§2) Susceptibility of Anaerobic Bacteroides Isolates by the
(§3) Agar-Dilution Method MIC (μg/ml) readings 24 hrs. after incubation

Bacteroides corrodens = test: as above; conditions: Eikenella corrodens; strain 1874; readings 24 hrs. after incubation
Source text: as §1, §2, §3

[2] = tested on: Bacteroides thetaiotaomicron; test: as above; conditions: 24 h
Source text: as §1, §2, §3

H. influenzae = test: Expanded Spectrum MIC (Table II); conditions: Haemophilus influenzae
Source text: as §1
(§4) Expanded Spectrum MIC (μg/ml)

Staph. aureus [3] = test: Expanded Spectrum MIC (Table II); conditions: Staphylococcus aureus
Source text: as §1, §4

Staph. epi [4] = test: Expanded Spectrum MIC (Table II)
Source text: as §1, §4

Staph. aureus [5] = test: Agar Dilution MIC (Table I); conditions: Staphylococcus aureus, read-out: Agar Dilution MIC
Strep. A = test: Agar Dilution MIC (Table I); conditions: strain C203; read-out: Agar Dilution MIC
Klebsiella = test: Agar Dilution MIC (Table I); conditions: Klebsiella, read-out: Agar Dilution MIC

CC1=C(C(=O)O)N2C(=O)C(NC(=O)[C@H](N)c3csc4cc(F)ccc34)C2SC1 (stereo partly drawn) [Ex. 17, D-7-(6-Fluoro-3-benzothienyl)glycylamido-3-methyl-3-cephem-4-carboxylic acid]
MIC (Strep. D; strain 2041): 64 µg/mL (≈ 152 µM) | MIC (Strep. D; strain X66): 128 µg/mL (≈ 304 µM) | MIC (Strep. PN): 0.5 µg/mL (≈ 1.19 µM) | MIC (H. influ.; strain 76): 0.5 µg/mL (≈ 1.19 µM) | MIC (H. influ.; strain C.L.): 2 µg/mL (≈ 4.75 µM) | MIC (E. coli; strain EC14): 64 µg/mL (≈ 152 µM) | MIC (E. coli; strain N10): 128 µg/mL (≈ 304 µM) | MIC (E. coli; strain TEM): 64 µg/mL (≈ 152 µM) | MIC (Staph. epi [1]; strain 222): 2 µg/mL (≈ 4.75 µM) | MIC (Staph. epi [1]; strain EPI1): 4 µg/mL (≈ 9.49 µM) | MIC (Bacteroides fragilis; strain 9, readings 24 hrs. after incubation): 4 µg/mL (≈ 9.49 µM) | MIC (Bacteroides fragilis; strain 103, readings 24 hrs. after incubation): 16 µg/mL (≈ 38 µM) | MIC (Bacteroides fragilis; strain 104, readings 24 hrs. after incubation): 2 µg/mL (≈ 4.75 µM) | MIC (Bacteroides fragilis; strain 106, readings 24 hrs. after incubation): 4 µg/mL (≈ 9.49 µM) | MIC (Bacteroides fragilis; strain 107, readings 24 hrs. after incubation): 8 µg/mL (≈ 19 µM) | MIC (Bacteroides fragilis; strain 108, readings 24 hrs. after incubation): 4 µg/mL (≈ 9.49 µM) | MIC (Bacteroides fragilis; strain 110, readings 24 hrs. after incubation): 4 µg/mL (≈ 9.49 µM) | MIC (Bacteroides fragilis; strain 111, readings 24 hrs. after incubation): 32 µg/mL (≈ 75.9 µM) | MIC (Bacteroides fragilis; strain 1877, readings 24 hrs. after incubation): 8 µg/mL (≈ 19 µM) | MIC (Bacteroides corrodens): 16 µg/mL (≈ 38 µM) | MIC ([2]; strain 1438, readings 24 hrs. after incubation): 8 µg/mL (≈ 19 µM) | MIC ([2]; strain 1900A, readings 24 hrs. after incubation): 32 µg/mL (≈ 75.9 µM) | MIC (H. influenzae; strain 76): 1 µg/mL (≈ 2.37 µM) | MIC (H. influenzae; strain 105): 0.5 µg/mL (≈ 1.19 µM) | MIC (H. influenzae; strain 158): 0.5 µg/mL (≈ 1.19 µM) | MIC (H. influenzae; strain 164): 0.5 µg/mL (≈ 1.19 µM) | MIC (H. influenzae; strain 169): 1 µg/mL (≈ 2.37 µM) | MIC (H. influenzae; strain 171): 1 µg/mL (≈ 2.37 µM) | MIC (H. influenzae; strain 312): 0.5 µg/mL (≈ 1.19 µM) | MIC (H. influenzae; strain 1683): 0.25 µg/mL (≈ 0.593 µM) | MIC (H. influenzae; strain 1930): 0.5 µg/mL (≈ 1.19 µM) | MIC (H. influenzae; strain 4842): 0.5 µg/mL (≈ 1.19 µM) | MIC (H. influenzae; strain C.L.): 2 µg/mL (≈ 4.75 µM) | MIC (H. influenzae; strain HESS): 1 µg/mL (≈ 2.37 µM) | MIC (H. influenzae; strain M366): 64 µg/mL (≈ 152 µM) | MIC (H. influenzae; strain M370): 0.5 µg/mL (≈ 1.19 µM) | MIC (H. influenzae; strain M371): 0.5 µg/mL (≈ 1.19 µM) | MIC (H. influenzae; strain R465): 64 µg/mL (≈ 152 µM) | MIC (H. influenzae; strain STEL): 64 µg/mL (≈ 152 µM) | MIC (Staph. aureus [3]; strain S224): 1 µg/mL (≈ 2.37 µM) | MIC (Staph. aureus [3]; strain S225): 1 µg/mL (≈ 2.37 µM) | MIC (Staph. aureus [3]; strain S226): 1 µg/mL (≈ 2.37 µM) | MIC (Staph. aureus [3]; strain S227): 1 µg/mL (≈ 2.37 µM) | MIC (Staph. aureus [3]; strain S228): 0.5 µg/mL (≈ 1.19 µM) | MIC (Staph. aureus [3]; strain S229): 1 µg/mL (≈ 2.37 µM) | MIC (Staph. aureus [3]; strain S230): 1 µg/mL (≈ 2.37 µM) | MIC (Staph. aureus [3]; strain S231): 0.5 µg/mL (≈ 1.19 µM) | MIC (Staph. aureus [3]; strain S234): 1 µg/mL (≈ 2.37 µM) | MIC (Staph. aureus [3]; strain S237): 1 µg/mL (≈ 2.37 µM) | MIC (Staph. aureus [3]; strain S238): 1 µg/mL (≈ 2.37 µM) | MIC (Staph. aureus [3]; strain S239): 1 µg/mL (≈ 2.37 µM) | MIC (Staph. epi [4]; strain 219): 0.5 µg/mL (≈ 1.19 µM) | MIC (Staph. epi [4]; strain 269): 2 µg/mL (≈ 4.75 µM) | MIC (Staph. epi [4]; strain 270): 2 µg/mL (≈ 4.75 µM) | MIC (Staph. epi [4]; strain 285): 1 µg/mL (≈ 2.37 µM) | MIC (Staph. epi [4]; strain 286): 0.25 µg/mL (≈ 0.593 µM) | MIC (Staph. epi [4]; strain EPI1): 4 µg/mL (≈ 9.49 µM) | MIC (Staph. aureus [5]; strain V41): 8 µg/mL (≈ 19 µM) | MIC (Staph. aureus [5]; strain X1.1): 1 µg/mL (≈ 2.37 µM) | MIC (Staph. aureus [5]; strain X400): 64 µg/mL (≈ 152 µM) | MIC (Strep. A): 0.125 µg/mL (≈ 0.297 µM) | MIC (Klebsiella; strain KAE): 128 µg/mL (≈ 304 µM) | MIC (Klebsiella; strain X26): 2 µg/mL (≈ 4.75 µM) | MIC (Klebsiella; strain X68): 128 µg/mL (≈ 304 µM)

CON=C(C(=O)NC1C(=O)N2C(C(=O)O)=C(C)CSC12)c1csc2cc(OC)ccc12 (centres unmarked) [Ex. 22]
MIC (Strep. D; strain 2041): 64 µg/mL (≈ 139 µM) | MIC (Strep. D; strain X66): 64 µg/mL (≈ 139 µM) | MIC (Strep. PN): 0.5 µg/mL (≈ 1.08 µM) | MIC (H. influ.; strain 76): 2 µg/mL (≈ 4.33 µM) | MIC (H. influ.; strain C.L.): 8 µg/mL (≈ 17.3 µM) | MIC (E. coli; strain EC14): 64 µg/mL (≈ 139 µM) | MIC (E. coli; strain N10): 128 µg/mL (≈ 277 µM) | MIC (E. coli; strain TEM): 128 µg/mL (≈ 277 µM) | MIC (Staph. epi [1]; strain 222): 4 µg/mL (≈ 8.67 µM) | MIC (Staph. epi [1]; strain EPI1): 8 µg/mL (≈ 17.3 µM) | MIC (H. influenzae; strain 76): 1 µg/mL (≈ 2.17 µM) | MIC (H. influenzae; strain 105): 2 µg/mL (≈ 4.33 µM) | MIC (H. influenzae; strain 158): 1 µg/mL (≈ 2.17 µM) | MIC (H. influenzae; strain 164): 1 µg/mL (≈ 2.17 µM) | MIC (H. influenzae; strain 169): 2 µg/mL (≈ 4.33 µM) | MIC (H. influenzae; strain 171): 2 µg/mL (≈ 4.33 µM) | MIC (H. influenzae; strain 312): 1 µg/mL (≈ 2.17 µM) | MIC (H. influenzae; strain 1683): 0.5 µg/mL (≈ 1.08 µM) | MIC (H. influenzae; strain 1930): 1 µg/mL (≈ 2.17 µM) | MIC (H. influenzae; strain 4842): 1 µg/mL (≈ 2.17 µM) | MIC (H. influenzae; strain C.L.): 4 µg/mL (≈ 8.67 µM) | MIC (H. influenzae; strain HESS): 4 µg/mL (≈ 8.67 µM) | MIC (H. influenzae; strain M366): 64 µg/mL (≈ 139 µM) | MIC (H. influenzae; strain M370): 1 µg/mL (≈ 2.17 µM) | MIC (H. influenzae; strain M371): 2 µg/mL (≈ 4.33 µM) | MIC (H. influenzae; strain R465): 2 µg/mL (≈ 4.33 µM) | MIC (H. influenzae; strain STEL): 64 µg/mL (≈ 139 µM) | MIC (Staph. aureus [3]; strain S224): 2 µg/mL (≈ 4.33 µM) | MIC (Staph. aureus [3]; strain S225): 2 µg/mL (≈ 4.33 µM) | MIC (Staph. aureus [3]; strain S226): 2 µg/mL (≈ 4.33 µM) | MIC (Staph. aureus [3]; strain S227): 2 µg/mL (≈ 4.33 µM) | MIC (Staph. aureus [3]; strain S228): 2 µg/mL (≈ 4.33 µM) | MIC (Staph. aureus [3]; strain S229): 4 µg/mL (≈ 8.67 µM) | MIC (Staph. aureus [3]; strain S230): 2 µg/mL (≈ 4.33 µM) | MIC (Staph. aureus [3]; strain S231): 1 µg/mL (≈ 2.17 µM) | MIC (Staph. aureus [3]; strain S234): 2 µg/mL (≈ 4.33 µM) | MIC (Staph. aureus [3]; strain S237): 2 µg/mL (≈ 4.33 µM) | MIC (Staph. aureus [3]; strain S238): 4 µg/mL (≈ 8.67 µM) | MIC (Staph. aureus [3]; strain S239): 2 µg/mL (≈ 4.33 µM) | MIC (Staph. epi [4]; strain 219): 2 µg/mL (≈ 4.33 µM) | MIC (Staph. epi [4]; strain 269): 4 µg/mL (≈ 8.67 µM) | MIC (Staph. epi [4]; strain 270): 8 µg/mL (≈ 17.3 µM) | MIC (Staph. epi [4]; strain 285): 4 µg/mL (≈ 8.67 µM) | MIC (Staph. epi [4]; strain 286): 1 µg/mL (≈ 2.17 µM) | MIC (Staph. epi [4]; strain EPI1): 16 µg/mL (≈ 34.7 µM) | MIC (Staph. aureus [5]; strain V41): 8 µg/mL (≈ 17.3 µM) | MIC (Staph. aureus [5]; strain X1.1): 1 µg/mL (≈ 2.17 µM) | MIC (Staph. aureus [5]; strain X400): 64 µg/mL (≈ 139 µM) | MIC (Strep. A): 0.5 µg/mL (≈ 1.08 µM) | MIC (Klebsiella; strain KAE): 128 µg/mL (≈ 277 µM) | MIC (Klebsiella; strain X26): 1 µg/mL (≈ 2.17 µM) | MIC (Klebsiella; strain X68): 128 µg/mL (≈ 277 µM)
